Experimental data: patent US12139481B2, “Compositions comprising macrocycle derivatives incorporating bridged macrocycles and methods of producing and using same” (Southwestern Oklahoma State University, priority 2015, dated 2024)

What was measured:
[1] = test system: L. donovani promastigotes; experiment: Antileishmanial Alamar Blue assay on promastigotes; type: cell-based, Leishmania donovani; conditions: for X more potent than Pentamidine: L. donovani, ratio of molar IC50 to Pentamidine; for L. donovani IC50 / IC50: promastigotes, 48 hours, Alamar Blue; for IC50: read-out: L. donavani IC50
In short: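 Alamar Blue fluorescence (544/590 nm) quantified growth after 48 hours at 26° C of compound-treated promastigotes. Parasites were seeded at 5×10^5/mL in RPMI 1640 plus 10% FCS; drug range 50-3.1 μg/mL, and IC50 derived by plotting percent growth against test concentration.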

C. glabrata ATCC 90030 = experiment: Antifungal broth dilution assay against C. glabrata (modified CLSI); type: cell-based, Candida glabrata; conditions: for C. glabrata IC50 / IC50: in vitro; for IC50: converted with molecular weight; for X more potent than Amphotericin B: molar IC50 ratio versus amphotericin B
In short: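 Growth read by optical density at 530 nm, duplicate wells, 1% final DMSO. Staphylococcus spp.: Mueller-Hinton pH 7.3, 5.0×10^5 CFU/ml, 35 °C for 16-20 h; Candida spp.: RPMI/dextrose/glutamine/MOPS pH 6.0, 1.5×10^3 CFU/ml, 35 °C for 46-50 h. Reported values are 50% inhibition versus controls, no-growth MIC, and killing MFC/MBC.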

C. krusei ATCC 6258 = experiment: Antifungal broth dilution assay against C. krusei (modified CLSI); type: cell-based, Candida krusei; conditions: for X more potent than Amphotericin B: C. krusei, ratio of molar IC50 to amphotericin B; for C. krusei IC50 / IC50: in vitro; for IC50: read-out: C. krusei IC50 (mol/L)
Protocol: General Experimental Procedures. All organisms were obtained from the American Type Culture Collection (Manassas, VA) and include the fungi Candida albicans ATCC 90028, C. glabrata ATCC 90030, C. krusei ATCC 6258, and Cryptococcus neoformans ATCC 90113, and the bacteria Staphylococcus aureus ATCC 29213 and methicillin-resistant S. aureus ATCC 33591 (MRS). All organisms were tested using modified versions of the CLSI (formerly NCCLS) methods. For all organisms, optical density was used to monitor growth (NCCLS, Reference Method for Broth Dilution Antifungal Susceptibility Testing of Yeasts; Approved Standard M27-A2. National Committee on Clinical Laboratory Standards, 2002 22 (15); and NCCLS, Methods for Dilution Antimicrobial Susceptibility Tests for Bacteria that Grow Aerobically; Approved Standard, Seventh Edition M7-A7. National Committee on Clinical Laboratory Standards, 2006. 26(2)).
Samples (dissolved in DMSO) were serially-diluted in 20% DMSO/saline and transferred (10 μL) in duplicate to 96 well flat bottom microplates. Inocula were prepared by correcting the OD630 of microbe suspensions in incubation broth [RPMI 1640/0.2% dextrose/0.03% glutamine/MOPS @ pH 6.0 (Cellgro) for Candida spp., Sabouraud Dextrose for C. neoformans, and cation-adjusted Mueller-Hinton (Difco) @ pH 7.3 for Staphylococcus spp. to afford an assay volume of […] and final target inocula of: Candida spp. and C. neoformans: 1.5×10^3, and Staphylococcus spp.: 5.0×10^5 CFU/ml. Final sample test concentrations were 1/100th the DMSO stock concentration. […] All organisms were read at either 530 nm using the Biotek Powerwave XS plate reader (Bio-Tek Instruments, Vermont) prior to and after incubation: Candida spp. at 35° C. for 46-50 h, Staphylococcus spp. at 35° C. for 16-20 h, and C. neoformans at 35° C. for 70-74 h. IC50s (concentrations that afford 50% inhibition relative to controls) were calculated using XLfit 4.2 software (IDBS, Alameda, CA) using fit model 201. The MIC is defined as the lowest test concentration that allows no detectable growth. Minimum fungicidal or bactericidal concentrations were determined by removing 5 μl from each clear (or blue) well, transferring to fresh media, and incubating as previously mentioned. The MFC/MBC is defined as the lowest test concentration that kills the organism (allows no growth).
Primary Analysis. Samples were tested in duplicate at one test concentration (50 μg/mL), and percent inhibitions were calculated relative to blank and growth controls. Samples showing 50% inhibition in at least one test organism were selected for dose response (Secondary) studies.
Secondary Analysis. Extracts from the Primary Assay, and first-run pure compounds and column fractions were tested in duplicate at 3 test concentrations (5-fold dilutions). Samples dissolved to 20 mg/mL in DMSO were tested at 200, 40, and 8 μg/mL. Samples dissolved to 2 mg/mL in DMSO were tested at 20, 4, and 0.8 μg/mL.

[2] = test system: Cryptococcus neoformans ATCC 90113; experiment: Antimicrobial microdilution assay against Cryptococcus neoformans (modified CLSI/NCCLS, optical density); type: cell-based; conditions: for X more potent than Amphotericin B: C. neoformans, ratio of molar IC50 to Amphotericin B; for C. neoformans IC50 / IC50: in vitro, C. neoformans ATCC 90113; for IC50: read-out: C. neoformans IC50 (mol/L)
In short: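 Fungicidal endpoint taken by subculturing 5 μL from each clear well onto agar, MFC being the lowest concentration with no regrowth. Duplicate wells of serially diluted compound (20% DMSO/saline) in RPMI pH 6.0, read at 630 nm pre- and post-incubation, under modified CLSI methods. IC50 means 50% growth inhibition against controls.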

Compound | X more potent than Pentamidine [1] | L. donovani IC50 [1] | IC50 [1] | C. glabrata IC50 (C. glabrata ATCC 90030) | IC50 (C. glabrata ATCC 90030) | X more potent than Amphotericin B (C. glabrata ATCC 90030) | X more potent than Amphotericin B (C. krusei ATCC 6258) | C. krusei IC50 (C. krusei ATCC 6258) | IC50 (C. krusei ATCC 6258) | X more potent than Amphotericin B [2] | C. neoformans IC50 [2] | IC50 [2]
[Br-].[Br-].c1cc(C[N+]23CCCN(CCN4CCCN(CC2)C4)C3)ccc1C[N+]12CCCN(CCN3CCCN(CC1)C3)C2 [SLK17A, [p-(BMBCyclams)]Br2] | 0.23 | 16.69 µg/mL | 23.4 µM | 1.317 µg/mL | 1.85 µM | 0.77 | 1.21 | 0.880 µg/mL | 1.24 µM | 0.02 | 8.250 µg/mL | 11.6 µM
O=[N+]([O-])c1ccc(CC2CNCCN(Cc3ccc(CN4CCCN5CCN(CCCNCC4)CC5)cc3)CCCN3CCN(CC3)C2)cc1.[Cu+2].[Cu+2].[O-][Cl+3]([O-])([O-])[O-].[O-][Cl+3]([O-])([O-])[O-].[O-][Cl+3]([O-])([O-])[O-].[O-][Cl+3]([O-])([O-])[O-] (stereo not drawn) [SJA234, [Cu2(bis-SB-C-Ar-NO2)(ClO4)4]] | 0.21 | 30.31 µg/mL | 24.9 µM | – | – | – | 0.40 | 4.550 µg/mL | 3.75 µM | 0.15 | 1.910 µg/mL | 1.57 µM
c1cc(CN2CCNCCCN3CCN(CC3)CC2)ccc1CN1CCNCCCN2CCN(CC2)CC1 [OB45, p-SB-Homocyclens] | 0.16 | 17.44 µg/mL | 33.1 µM | – | – | – | 0.98 | 0.800 µg/mL | 1.52 µM | 0.16 | ≤ 0.800 µg/mL | 1.52 µM
[Zn3(tris-CB-Cyclams)(OAc)3][PF6]3•2.4NH4PF6 [BNS26] | – | – | – | 2.140 µg/mL | 1.05 µM | 1.35 | 2.49 | 1.220 µg/mL | 0.6 µM | 0.07 | 6.840 µg/mL | 3.36 µM
O=[N+]([O-])[O-].O=[N+]([O-])[O-].O=[N+]([O-])[O-].O=[N+]([O-])[O-].O=[N+]([O-])c1ccc(CC2CNCCN(Cc3ccc(CN4CCCN5CCN(CCCNCC4)CC5)cc3)CCCN3CCN(CC3)C2)cc1.[Ni+2].[Ni+2] (stereo not drawn) [SJA236, [Ni2(bis-SB-C-Ar-NO2)(NO3)4]] | 0.23 | 24.85 µg/mL | 23.6 µM | 5.750 µg/mL | 5.45 µM | 0.26 | 0.26 | 6.030 µg/mL | 5.71 µM | 0.34 | 0.740 µg/mL | 0.701 µM
CC(=O)[O-].F[P-](F)(F)(F)(F)F.[Zn+2].c1ccc(CN2CCN3CCCN(CC2)CCN(Cc2ccccc2)CC3)cc1 [AW041, [Zn(Bn2PBCyclen)(C2H3O2)]PF6] | 0.15 | 22.92 µg/mL | – | – | – | – | 0.19 | 5.170 µg/mL | – | 0.02 | 7.330 µg/mL | –
